From ChEMBL document CHEMBL1137978, “Three new compounds from the plant Lippia alva as inhibitors of chemokine receptor 5 (CCR5)” (Bioorg Med Chem Lett, 2004)

Columns and labels:
Assay type in all cases: functional, cell-based
[1] = target: T1, C-C chemokine receptor type 5 (Homo sapiens, UniProt P51681); test: Inhibition of MIP-1alpha ligand of chemokine receptor 5 induced calcium signal in U-87-CCR5 cells by calcium mobilization assay
[2] = target: T1, C-C chemokine receptor type 5; test: Inhibition of MIP-1beta ligand of chemokine receptor 5 induced calcium signal in U-87-CCR5 cells by calcium mobilization assay
[3] = target: T1, C-C chemokine receptor type 5; test: Inhibition of 50% of RANTES co-receptor of chemokine receptor 5 induced calcium signal in U-87-CCR5 cells by calcium mobilization assay
[4] = target: T1, C-C chemokine receptor type 5; test: Inhibition of RANTES co-receptor of chemokine receptor 5 induced calcium signal in U-87-CCR5 cells by calcium mobilization assay

T1 sequence (P51681 whole entry): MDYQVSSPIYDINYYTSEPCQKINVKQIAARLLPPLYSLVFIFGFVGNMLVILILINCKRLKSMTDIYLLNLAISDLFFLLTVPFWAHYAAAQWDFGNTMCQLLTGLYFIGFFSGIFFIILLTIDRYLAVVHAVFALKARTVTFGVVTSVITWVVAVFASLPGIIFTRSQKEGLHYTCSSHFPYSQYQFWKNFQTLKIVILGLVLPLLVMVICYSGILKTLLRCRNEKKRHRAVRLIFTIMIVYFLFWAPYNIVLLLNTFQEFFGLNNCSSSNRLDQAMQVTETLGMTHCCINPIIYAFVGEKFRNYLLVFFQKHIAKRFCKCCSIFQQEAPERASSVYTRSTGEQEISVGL

Row | IC50 [1] [µM] | IC50 [2] [µM] | IC50 [3] [µM] | IC50 [4] [µM] | SMILES
1 | > 10 | 5.5 | 8.7 |  | COc1ccc(/C=C/C(=O)OC(C)C(=O)[C@H]2C[C@@H]2[C@H](O)[C@H]2CC=CC(=O)O2)cc1 (some centres undefined)
2 | 10 | 7.2 |  | > 10 | CC(OC(=O)/C=C/c1ccc(O)cc1)C(=O)[C@H]1C[C@@H]1[C@H](O)[C@H]1CC=CC(=O)O1 (some centres undefined)
3 | 8.8 | 6 |  | > 10 | COc1ccc(/C=C\C(=O)OC(C)C(=O)[C@H]2C[C@@H]2[C@H](O)[C@H]2CC=CC(=O)O2)cc1 (some centres undefined)
